{"source": "paper PMC11953442", "about": "“PIP2-mediated oligomerization of the endosomal sodium/proton exchanger NHE9” (Nature Communications, 2025)", "molecules": {"B1": {"name": "E. caballus NHE9* (residues 8 to 575), tag removed (domain or fragment, Equus caballus, UniProt F7B113 8-575, looked up)", "chain": "MSEKDEYQFQHQGAVELLVFNFLLILTILTIWLFKNHRFRFLHETGGAMVYGLIMGLILRYATAPTDIESGTVYDCGKLAFSPSTLLINITDQVYEYKYKREISQHNINPHLGNAILEKMTFDPEIFFNVLLPPIIFHAGYSLKKRHFFQNLGSILTYAFLGTAISCIVIGLIMYGFVKAMVYAGQLKNGDFHFTDCLFFGSLMSATDPVTVLAIFHELHVDPDLYTLLFGESVLNDAVAIVLTYSISIYSPKENPNAFDAAAFFQSVGNFLGIFAGSFAMGSAYAVVTALLTKFTKLCEFPMLETGLFFLLSWSAFLSAEAAGLTGIVAVLFCGVTQAHYTYNNLSLDSKMRTKQLFEFMNFLAENVIFCYMGLALFTFQNHIFNALFILGAFLAIFVARACNIYPLSFLLNLGRKHKIPWNFQHMMMFSGLRGAIAFALAIRDTESQPKQMMFSTTLLLVFFTVWVFGGGTTPMLTWLQIRVGVDLDEDLKERPSSHQEANNLEKSTTKTESAWLFRMWYGFDHKYLKPILTHSGPPLTTTLPEWCGPISRLLTSPQAYGEQLKED", "notes": "Endosomal Na+/H+ exchanger NHE9 (SLC9A9), Equus caballus, partially truncated on the C-terminal tail, residues 8 to 575 out of a total of 644; also called SLC9A9; not shown: GFP, C-terminal, cleaved; TwinStrep, C-terminal, cleaved; His8, C-terminal, cleaved"}, "B2": {"name": "E. caballus NHE9*CC (NHE9* L139C-I444C double mutant) (domain or fragment, Equus caballus, UniProt F7B113 8-575, looked up)", "chain": "B1 chain with L132C, I437C", "notes": "Endosomal Na+/H+ exchanger NHE9 (SLC9A9), Equus caballus, residues 8 to 575 out of a total of 644, with L139C and I444C; also called cysteine variant; not shown: GFP, C-terminal, cleaved; TwinStrep, C-terminal, cleaved; His8, C-terminal, cleaved"}, "B3": {"name": "E. coli NhaA WT-like triple mutant (A109T, Q277G, L296M), P13738 1-388 (natural protein)", "chain": "MKHLHRFFSSDASGGIILIIAAILAMIMANSGATSGWYHDFLETPVQLRVGSLEINKNMLLWINDALMAVFFLLVGLEVKRELMQGSLASLRQAAFPVIAAIGGMIVPTLLYLAFNYADPITREGWAIPAATDIAFALGVLALLGSRVPLALKIFLMALAIIDDLGAIIIIALFYTNDLSMASLGVAAVAIAVLAVLNLCGARRTGVYILVGVVLWTAVLKSGVHATLAGVIVGFFIPLKEKHGRSPAKRLEHVLHPWVAYLILPLFAFANAGVSLGGVTLDGLTSILPLGIIAGMLIGKPLGISLFCWLALRLKLAHLPEGTTYQQIMVVGILCGIGFTMSIFIASLAFGSVDPELINWAKLGILVGSISSAVIGYSWLRVRLRPSV"}}, "key": {"NHE9*": {"target": "T1, NHE9* (Equus caballus, UniProt F7B113)", "T1 construct": "gene SLC9A9; residues 8-575 of 644, C-terminally truncated; TEV-GFP-TwinStrep-His8 from S. cerevisiae FGY217; GFP kept for thermal shift, cut for cryo-EM; homodimer", "T1 sequence (F7B113 8-575)": "B1 chain", "assay": "GFP-based thermal shift assay", "type": "binding", "settings": "0.1 mg/ml lipid; DDM, CHS, octyl glucoside; NHE9*-GFP fusion"}, "EcNhaA-mut2": {"target": "T2, EcNhaA-mut2 (Escherichia coli, UniProt P13738, A109T/Q277G/L296M)", "T2 construct": "gene nhaA; from E. coli Lemo21(DE3); homodimer", "assay": "cryo-EM structure", "type": "binding", "settings": "pH 7.5; DDM; 3 mM cardiolipin added; three lipids at dimer interface; 3.3 A"}, "[1]": {"target": "the molecule itself", "assay": "cryo-EM structure; NHE9* at pH 6.5, 20 mM Mes-Tris, 150 mM NaCl, 0.003% LMNG, 0.0006% CHS; C2 symmetry; AlphaFold2 multimer model refined into a composite map"}, "[2]": {"target": "the molecule itself", "assay": "cryo-EM structure; NHE9*CC purified with bovine brain lipid extract, 20 mM Tris-HCl pH 8, 150 mM NaCl, 0.003% LMNG, 0.0006% CHS; C2 symmetry; two PI(3,5)P2 modelled at the dimer interface"}, "[3]": {"target": "T3, E. coli NhaA WT-like triple mutant (A109T, Q277G, L296M) (E. coli), P13738", "T3 chain": "B3 chain", "assay": "cryo-EM structure; NhaA triple-mutant-GFP fusion in DDM with 3 mM cardiolipin (18:1) added, 20 mM Tris-HCl pH 7.5, 150 mM NaCl, 0.03% DDM; three cardiolipins modelled at the dimer interface", "settings": "remark: other sources report otherwise"}}, "note": "Substitutions are numbered along the chain they refer to. In names and notes the source's numbering stands.", "data": [{"molecule": "CCCCCCCCCCCCCCCC(=O)OC[C@H](COP(=O)(O)O[C@@H]1[C@H](O)[C@H](OP(=O)(O)O)[C@@H](O)[C@H](OP(=O)(O)O)[C@H]1O)OC(=O)CCCCCCCCCCCCCCC", "note": "[PI(3,5)P2 dipalmitoyl]", "values": [{"measurement": "dTm", "setting": "NHE9*", "value": 15, "unit": "°C"}]}, {"molecule": "CCCCCCCC(=O)OC[C@H](COP(=O)(O)O[C@@H]1[C@H](O)[C@H](O)[C@@H](OP(=O)(O)O)[C@H](OP(=O)(O)O)[C@H]1O)OC(=O)CCCCCCC", "note": "[PI(4,5)P2 dioctanoyl]", "values": [{"measurement": "dTm", "setting": "NHE9*", "value": 8, "unit": "°C"}]}, {"molecule": "CCCCCCCC/C=C\\CCCCCCCC(=O)OC[C@H](COP(=O)(O)OCC(O)COP(=O)(O)OC[C@@H](COC(=O)CCCCCCC/C=C\\CCCCCCCC)OC(=O)CCCCCCC/C=C\\CCCCCCCC)OC(=O)CCCCCCC/C=C\\CCCCCCCC", "note": "(stereo partly drawn) [cardiolipin (18:1)]", "values": [{"measurement": "cryo-EM structure", "setting": "EcNhaA-mut2", "value": "map density supported the modelling of cardiolipin at the dimerization interface"}]}, {"molecule": "B1", "values": [{"measurement": "stoichiometry N", "setting": "[1]", "value": 2}]}, {"molecule": "B2", "values": [{"measurement": "stoichiometry N", "setting": "[2]", "value": 2}]}, {"molecule": "B3", "values": [{"measurement": "stoichiometry N", "setting": "[3]", "value": 2}]}]}
